Experiments:
Assay in all cases: Microbiological challenge testing in BPW broth, graded subculture counts
Assay type in all cases: cell-based
[1] = system: Staphylococcus epidermidis ATCC 12228
Procedure, shortened: (§1)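 Serial 1:10 dilutions were made in pH 7.2 phosphate buffer and spread-plated onto PCA, and colonies were counted after 48 h or more at 35 °C. In the challenge, BPW–dextrose tubes containing the test material received inoculum at 10^5–10^6 CFU/mL at time zero. Controls without test material served as reference.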

[2] = system: Streptococcus mutans ATCC 35668
Procedure, shortened: as §1

[3] = system: Burkholderia cepacia Wild type; conditions: B. cepacia
Procedure, shortened: as §1

[4] = system: Bacillus subtilis Wild type
Procedure, shortened: as §1

[5] = system: Staphylococcus aureus ATCC 25923; conditions: S. aureus
Procedure, shortened: as §1

Aeromonas sp. Wild type = system: Aeromonas sp. Wild type
Procedure, shortened: as §1

CC(O)CO (stereo not drawn) [PG, propylene glycol]
S. epidermidis growth grade, 3 day ([1]; 0.5% weight/volume): 5 (More than 10,000 colonies estimated (thus more than 100,000 CFU/mL))
S. epidermidis growth grade, 13 day ([1]; 0.5% weight/volume): 5 (More than 10,000 colonies estimated (thus more than 100,000 CFU/mL))
S. epidermidis growth grade, 30 day ([1]; 0.5% weight/volume): 5 (More than 10,000 colonies estimated (thus more than 100,000 CFU/mL))
S. epidermidis growth grade, 3 day ([1]; 1.25% weight/volume): 4 (1000 to 10,000 colonies countable (thus 10,000 CFU/mL to 100,000 CFU/mL))
S. epidermidis growth grade, 13 day ([1]; 1.25% weight/volume): 4 (1000 to 10,000 colonies countable (thus 10,000 CFU/mL to 100,000 CFU/mL))
S. epidermidis growth grade, 30 day ([1]; 1.25% weight/volume): 4 (1000 to 10,000 colonies countable (thus 10,000 CFU/mL to 100,000 CFU/mL))
S. epidermidis growth grade, 3 day ([1]; 2.5% weight/volume): 4 (1000 to 10,000 colonies countable (thus 10,000 CFU/mL to 100,000 CFU/mL))
S. epidermidis growth grade, 13 day ([1]; 2.5% weight/volume): 4 (1000 to 10,000 colonies countable (thus 10,000 CFU/mL to 100,000 CFU/mL))
S. epidermidis growth grade, 30 day ([1]; 2.5% weight/volume): 4 (1000 to 10,000 colonies countable (thus 10,000 CFU/mL to 100,000 CFU/mL))
S. epidermidis growth grade, 3 day ([1]; 5.0% weight/volume): 4 (1000 to 10,000 colonies countable (thus 10,000 CFU/mL to 100,000 CFU/mL))
S. epidermidis growth grade, 13 day ([1]; 5.0% weight/volume): 4 (1000 to 10,000 colonies countable (thus 10,000 CFU/mL to 100,000 CFU/mL))
S. epidermidis growth grade, 30 day ([1]; 5.0% weight/volume): 4 (1000 to 10,000 colonies countable (thus 10,000 CFU/mL to 100,000 CFU/mL))
S. mutans growth grade, 3 day ([2]; 0.5% weight/volume): 5 (More than 10,000 colonies estimated (thus more than 100,000 CFU/mL))
S. mutans growth grade, 13 day ([2]; 0.5% weight/volume): 5 (More than 10,000 colonies estimated (thus more than 100,000 CFU/mL))
S. mutans growth grade, 30 day ([2]; 0.5% weight/volume): 5 (More than 10,000 colonies estimated (thus more than 100,000 CFU/mL))
S. mutans growth grade, 3 day ([2]; 1.25% weight/volume): 4 (1000 to 10,000 colonies countable (thus 10,000 CFU/mL to 100,000 CFU/mL))
S. mutans growth grade, 13 day ([2]; 1.25% weight/volume): 4 (1000 to 10,000 colonies countable (thus 10,000 CFU/mL to 100,000 CFU/mL))
S. mutans growth grade, 30 day ([2]; 1.25% weight/volume): 4 (1000 to 10,000 colonies countable (thus 10,000 CFU/mL to 100,000 CFU/mL))
S. mutans growth grade, 3 day ([2]; 2.5% weight/volume): 4 (1000 to 10,000 colonies countable (thus 10,000 CFU/mL to 100,000 CFU/mL))
S. mutans growth grade, 13 day ([2]; 2.5% weight/volume): 4 (1000 to 10,000 colonies countable (thus 10,000 CFU/mL to 100,000 CFU/mL))
S. mutans growth grade, 30 day ([2]; 2.5% weight/volume): 4 (1000 to 10,000 colonies countable (thus 10,000 CFU/mL to 100,000 CFU/mL))
S. mutans growth grade, 3 day ([2]; 5.0% weight/volume): 4 (1000 to 10,000 colonies countable (thus 10,000 CFU/mL to 100,000 CFU/mL))
S. mutans growth grade, 13 day ([2]; 5.0% weight/volume): 4 (1000 to 10,000 colonies countable (thus 10,000 CFU/mL to 100,000 CFU/mL))
S. mutans growth grade, 30 day ([2]; 5.0% weight/volume): 4 (1000 to 10,000 colonies countable (thus 10,000 CFU/mL to 100,000 CFU/mL))
Grade ([3]; 0.5% (wt/vol), 3 day): 5 (More than 10,000 colonies estimated (thus more than 100,000 CFU/mL))
Grade ([3]; 0.5% (wt/vol), 14 day): 5 (More than 10,000 colonies estimated (thus more than 100,000 CFU/mL))
Grade ([3]; 0.5% (wt/vol), 30 day): 5 (More than 10,000 colonies estimated (thus more than 100,000 CFU/mL))
Grade ([3]; 1.25% (wt/vol), 3 day): 5 (More than 10,000 colonies estimated (thus more than 100,000 CFU/mL))
Grade ([3]; 1.25% (wt/vol), 14 day): 5 (More than 10,000 colonies estimated (thus more than 100,000 CFU/mL))
Grade ([3]; 1.25% (wt/vol), 30 day): 5 (More than 10,000 colonies estimated (thus more than 100,000 CFU/mL))
Grade ([3]; 2.5% (wt/vol), 3 day): 5 (More than 10,000 colonies estimated (thus more than 100,000 CFU/mL))
Grade ([3]; 2.5% (wt/vol), 14 day): 5 (More than 10,000 colonies estimated (thus more than 100,000 CFU/mL))
Grade ([3]; 2.5% (wt/vol), 30 day): 5 (More than 10,000 colonies estimated (thus more than 100,000 CFU/mL))
Grade ([3]; 5.0% (wt/vol), 3 day): 4 (1000 to 10,000 colonies countable (thus 10,000 CFU/mL to 100,000 CFU/mL))
Grade ([3]; 5.0% (wt/vol), 14 day): 4 (1000 to 10,000 colonies countable (thus 10,000 CFU/mL to 100,000 CFU/mL))
Grade ([3]; 5.0% (wt/vol), 30 day): 4 (1000 to 10,000 colonies countable (thus 10,000 CFU/mL to 100,000 CFU/mL))
B. subtillis growth grade, 3 day ([4]; 0.5% weight/volume): 5 (More than 10,000 colonies estimated (thus more than 100,000 CFU/mL))
B. subtillis growth grade, 14 day ([4]; 0.5% weight/volume): 5 (More than 10,000 colonies estimated (thus more than 100,000 CFU/mL))
B. subtillis growth grade, 30 day ([4]; 0.5% weight/volume): 5 (More than 10,000 colonies estimated (thus more than 100,000 CFU/mL))
B. subtillis growth grade, 3 day ([4]; 1.25% weight/volume): 5 (More than 10,000 colonies estimated (thus more than 100,000 CFU/mL))
B. subtillis growth grade, 14 day ([4]; 1.25% weight/volume): 4 (1000 to 10,000 colonies countable (thus 10,000 CFU/mL to 100,000 CFU/mL))
B. subtillis growth grade, 30 day ([4]; 1.25% weight/volume): 4 (1000 to 10,000 colonies countable (thus 10,000 CFU/mL to 100,000 CFU/mL))
B. subtillis growth grade, 3 day ([4]; 2.5% weight/volume): 5 (More than 10,000 colonies estimated (thus more than 100,000 CFU/mL))
B. subtillis growth grade, 14 day ([4]; 2.5% weight/volume): 4 (1000 to 10,000 colonies countable (thus 10,000 CFU/mL to 100,000 CFU/mL))
B. subtillis growth grade, 30 day ([4]; 2.5% weight/volume): 4 (1000 to 10,000 colonies countable (thus 10,000 CFU/mL to 100,000 CFU/mL))
B. subtillis growth grade, 3 day ([4]; 5.0% weight/volume): 5 (More than 10,000 colonies estimated (thus more than 100,000 CFU/mL))
B. subtillis growth grade, 14 day ([4]; 5.0% weight/volume): 4 (1000 to 10,000 colonies countable (thus 10,000 CFU/mL to 100,000 CFU/mL))
B. subtillis growth grade, 30 day ([4]; 5.0% weight/volume): 4 (1000 to 10,000 colonies countable (thus 10,000 CFU/mL to 100,000 CFU/mL))
Grade ([5]; 0.5% (wt/vol), 3 day): 5 (More than 10,000 colonies estimated (thus more than 100,000 CFU/mL))
Grade ([5]; 0.5% (wt/vol), 14 day): 4 (1000 to 10,000 colonies countable (thus 10,000 CFU/mL to 100,000 CFU/mL))
Grade ([5]; 0.5% (wt/vol), 30 day): 4 (1000 to 10,000 colonies countable (thus 10,000 CFU/mL to 100,000 CFU/mL))
Grade ([5]; 1.25% (wt/vol), 3 day): 4 (1000 to 10,000 colonies countable (thus 10,000 CFU/mL to 100,000 CFU/mL))
Grade ([5]; 1.25% (wt/vol), 14 day): 4 (1000 to 10,000 colonies countable (thus 10,000 CFU/mL to 100,000 CFU/mL))
Grade ([5]; 1.25% (wt/vol), 30 day): 4 (1000 to 10,000 colonies countable (thus 10,000 CFU/mL to 100,000 CFU/mL))
Grade ([5]; 2.5% (wt/vol), 3 day): 4 (1000 to 10,000 colonies countable (thus 10,000 CFU/mL to 100,000 CFU/mL))
Grade ([5]; 2.5% (wt/vol), 14 day): 4 (1000 to 10,000 colonies countable (thus 10,000 CFU/mL to 100,000 CFU/mL))
Grade ([5]; 2.5% (wt/vol), 30 day): 4 (1000 to 10,000 colonies countable (thus 10,000 CFU/mL to 100,000 CFU/mL))
Grade ([5]; 5.0% (wt/vol), 3 day): 4 (1000 to 10,000 colonies countable (thus 10,000 CFU/mL to 100,000 CFU/mL))
Grade ([5]; 5.0% (wt/vol), 14 day): 4 (1000 to 10,000 colonies countable (thus 10,000 CFU/mL to 100,000 CFU/mL))
Grade ([5]; 5.0% (wt/vol), 30 day): 4 (1000 to 10,000 colonies countable (thus 10,000 CFU/mL to 100,000 CFU/mL))
Aeromonas sp growth grade, 3 day (Aeromonas sp. Wild type; 0.5% weight/volume): 5 (More than 10,000 colonies estimated (thus more than 100,000 CFU/mL))
Aeromonas sp growth grade, 14 day (Aeromonas sp. Wild type; 0.5% weight/volume): 5 (More than 10,000 colonies estimated (thus more than 100,000 CFU/mL))
Aeromonas sp growth grade, 30 day (Aeromonas sp. Wild type; 0.5% weight/volume): 5 (More than 10,000 colonies estimated (thus more than 100,000 CFU/mL))
Aeromonas sp growth grade, 3 day (Aeromonas sp. Wild type; 1.25% weight/volume): 5 (More than 10,000 colonies estimated (thus more than 100,000 CFU/mL))
Aeromonas sp growth grade, 14 day (Aeromonas sp. Wild type; 1.25% weight/volume): 5 (More than 10,000 colonies estimated (thus more than 100,000 CFU/mL))
Aeromonas sp growth grade, 30 day (Aeromonas sp. Wild type; 1.25% weight/volume): 5 (More than 10,000 colonies estimated (thus more than 100,000 CFU/mL))
Aeromonas sp growth grade, 3 day (Aeromonas sp. Wild type; 2.5% weight/volume): 5 (More than 10,000 colonies estimated (thus more than 100,000 CFU/mL))
Aeromonas sp growth grade, 14 day (Aeromonas sp. Wild type; 2.5% weight/volume): 5 (More than 10,000 colonies estimated (thus more than 100,000 CFU/mL))
Aeromonas sp growth grade, 30 day (Aeromonas sp. Wild type; 2.5% weight/volume): 5 (More than 10,000 colonies estimated (thus more than 100,000 CFU/mL))
Aeromonas sp growth grade, 3 day (Aeromonas sp. Wild type; 5.0% weight/volume): 5 (More than 10,000 colonies estimated (thus more than 100,000 CFU/mL))
Aeromonas sp growth grade, 14 day (Aeromonas sp. Wild type; 5.0% weight/volume): 4 (1000 to 10,000 colonies countable (thus 10,000 CFU/mL to 100,000 CFU/mL))
Aeromonas sp growth grade, 30 day (Aeromonas sp. Wild type; 5.0% weight/volume): 4 (1000 to 10,000 colonies countable (thus 10,000 CFU/mL to 100,000 CFU/mL))
